Results taken from US9440980B2, “Remedy for diabetes” (EA Pharma Co., Ltd., priority 2007, dated 2016).

Experiments:
[1] = system: Akt phosphorylation in human liver-derived HLF cell; assay: Akt phosphorylation activity in Gβ expression inhibited HLF cell (siRNA, Western blot); format: cell-based; settings: FIG. 16
Protocol: The effect of Gβ expression inhibition by a siRNA method against the Akt phosphorylation activity of Compound 6 in a human liver-derived HLF cell was evaluated as follows.
The HLF cells were seeded in a Dulbecco MEM medium containing 10% FCS in a 24-well dish (IWAKI, Product No. 3820-024) at a ratio of 3.75×10^4 cells/well. The cells were cultured at 37° C. for 6 hours in the presence of 5% CO2 to achieve sufficient attachment, a siRNA was transfected into the cells at the concentration of 100 nM using Dharmafect 2 (Dharmacon, Product No. T-2002-02), and the resultant cells were cultured at 37° C. for 48 hours in the presence of 5% CO2. […] Each solution was subjected to an SDS polyacrylamide electrophoresis, and the phosphorylated Akt amount, the Gβ1 amount, the Gβ2 amount, and the Gβ4 amount were measured by a Western blot method using an anti-phosphorylated Akt antibody (Cell Signaling Technologies, Product No. 9271), an anti-Gβ1 antibody (SantaCruz, Product No. sc-379), an anti-Gβ2 antibody (SantaCruz, Product No. sc-380), and an anti-Gβ4 antibody (SantaCruz, Product No. sc-382). […]

HLF cell membrane = assay: Binding assay of 3H-labeled Compound 1 using HLF cell membrane; design: species or system human; settings: 3H-labeled Compound 1, calculated by Scatchard plot
Protocol: A cell membrane of a human liver-derived HLF cell was prepared as follows. HLF cells were approximately confluently cultured in a Dulbecco MEM medium containing 10% FCS in a cell culture dish having a diameter of 15 cm. The HLF cells cultured in 30 dishes were scraped by a cell scraper in the presence of an HMEE buffer (20 mM HEPES-KOH, 1 mM EDTA, 1 mM EGTA, and 2 mM MgCl2) to obtain about 30 ml of a cell suspension. The suspension was homogenized using a TEFLON (registered trademark) homogenizer (ice temperature, 1000 rpm, 15 stroke) and centrifuged at a low rate (1500 rpm, 5 minutes). […]
The binding assay of the ^3H-labeled Compound 1 on thus obtained cell membrane was carried out as follows. […] The filter plate was well washed with a TBS (20 mM Tris-HCl, 0.15 M NaCl, pH 7.4) containing 0.05% Twee-20 and sufficiently dried, 30 μl of a liquid scintillator (Microscinti 0, Packard) was added to the filter plate, and the ^3H count was measured by Topcount (Packard). […]
The inhibitory activity of each of the probe molecule compounds synthesized in Examples 2 and 7 to 10 against the binding of the ^3H-labeled Compound 1 to the HLF cell membrane was measured by the method described in Example 14 to confirm whether the probe compound could be bound to the binding protein like Compound 1. […]

SMILES: O=C1NCC2=C1[C@@H](c1ccccc1)N(C(=O)CO)[C@@H]1CCCC[C@H]1N2 [Compound 6]
- phosphorylated Akt amount ([1]; HLF cells with Gβ siRNA (Gβ1, Gβ2, Gβ4)): not detected at any Compound 6 concentration
- phosphorylated Akt amount ([1]; HLF cells with negative control siRNA): increased depending on the Compound 6 concentration

SMILES: O=C1NCC2=C1[C@@H](c1cccc3ccsc13)N(C(=O)CCc1ccccn1)[C@@H]1CCCC[C@H]1N2 [Compound 1]
- Kd (HLF cell membrane): 930 nM
